Publication PMC12307583 (Scientific Reports, 2025)

How the values were obtained:
[1] = target: T1, PfGrp170 (Plasmodium falciparum, UniProt C0H5H0); assay: suppression of heat-induced MDH aggregation, light scattering […] nm; assay type: biochemical; details: 100 µM NECA, 1 µM PfGrp170, MDH (pig heart), 20 mM Tris-HCl pH 7.5, 200 mM NaCl, 5 mM MgCl2, 48 °C; inhibitor of chaperone function
T1 sequence (C0H5H0 20-932): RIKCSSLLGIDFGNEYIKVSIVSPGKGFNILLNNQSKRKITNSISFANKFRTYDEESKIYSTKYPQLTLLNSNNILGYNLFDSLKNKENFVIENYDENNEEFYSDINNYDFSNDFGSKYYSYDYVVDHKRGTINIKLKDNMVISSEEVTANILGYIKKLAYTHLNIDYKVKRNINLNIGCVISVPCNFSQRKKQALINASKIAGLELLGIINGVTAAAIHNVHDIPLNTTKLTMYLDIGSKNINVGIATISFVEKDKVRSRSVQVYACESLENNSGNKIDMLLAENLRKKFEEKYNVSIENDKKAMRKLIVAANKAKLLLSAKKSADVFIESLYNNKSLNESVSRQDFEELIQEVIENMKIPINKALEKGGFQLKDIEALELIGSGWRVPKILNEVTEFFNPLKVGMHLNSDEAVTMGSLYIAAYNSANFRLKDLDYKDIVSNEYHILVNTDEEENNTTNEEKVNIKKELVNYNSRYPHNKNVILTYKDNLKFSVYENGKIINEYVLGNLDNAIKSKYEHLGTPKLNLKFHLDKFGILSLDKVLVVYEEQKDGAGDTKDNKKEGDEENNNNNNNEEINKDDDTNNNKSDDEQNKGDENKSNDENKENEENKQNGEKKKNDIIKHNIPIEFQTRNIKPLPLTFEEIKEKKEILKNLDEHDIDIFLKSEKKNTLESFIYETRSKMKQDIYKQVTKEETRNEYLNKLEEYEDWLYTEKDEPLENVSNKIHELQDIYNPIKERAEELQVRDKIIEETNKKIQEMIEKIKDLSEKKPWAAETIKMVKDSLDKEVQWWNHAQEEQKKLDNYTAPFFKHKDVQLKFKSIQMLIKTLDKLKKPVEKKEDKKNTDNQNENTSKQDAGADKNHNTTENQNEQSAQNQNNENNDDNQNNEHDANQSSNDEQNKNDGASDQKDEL

[2] = target: T1, PfGrp170; assay: biochemical
[3] = target: PfGrp94 (Plasmodium falciparum, UniProt Q8I0V4); details: basal ATPase; used as control protein
Sequence of PfGrp94 (Q8I0V4 29-821): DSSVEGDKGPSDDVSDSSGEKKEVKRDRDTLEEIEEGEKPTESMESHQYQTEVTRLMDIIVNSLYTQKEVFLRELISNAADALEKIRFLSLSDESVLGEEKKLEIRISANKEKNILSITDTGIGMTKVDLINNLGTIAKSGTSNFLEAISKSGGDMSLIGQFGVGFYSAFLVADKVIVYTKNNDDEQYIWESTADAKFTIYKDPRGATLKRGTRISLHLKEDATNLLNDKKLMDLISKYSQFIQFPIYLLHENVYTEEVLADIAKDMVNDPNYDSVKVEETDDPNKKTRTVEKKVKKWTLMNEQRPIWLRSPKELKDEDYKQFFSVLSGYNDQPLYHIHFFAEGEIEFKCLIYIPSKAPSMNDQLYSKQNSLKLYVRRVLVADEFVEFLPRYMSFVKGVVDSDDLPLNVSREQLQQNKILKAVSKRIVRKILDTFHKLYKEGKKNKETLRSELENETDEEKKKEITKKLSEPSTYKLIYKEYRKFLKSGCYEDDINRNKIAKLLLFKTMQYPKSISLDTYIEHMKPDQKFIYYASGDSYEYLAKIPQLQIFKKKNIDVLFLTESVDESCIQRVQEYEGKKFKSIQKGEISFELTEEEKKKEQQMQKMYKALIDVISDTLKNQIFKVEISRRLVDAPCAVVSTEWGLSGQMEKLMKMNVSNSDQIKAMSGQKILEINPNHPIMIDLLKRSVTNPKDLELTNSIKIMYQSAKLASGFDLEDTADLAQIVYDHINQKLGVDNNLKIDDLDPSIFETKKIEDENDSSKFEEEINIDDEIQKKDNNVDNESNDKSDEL

SMILES | relative aggregation [1] | Kd [2] | ATPase activity [3]
CCNC(=O)[C@H]1O[C@@H](n2cnc3c(N)ncnc32)[C@H](O)[C@@H]1O [NECA] | higher concentrations of NECA abrogated the chaperone function of PfGrp170 | – | –
Nc1ncnc2c1ncn2[C@@H]1O[C@H](COP(=O)(O)OP(=O)(O)OP(=O)(O)O)[C@@H](O)[C@H]1O [ATP] | – | 0.143 ± 0.0156 µM | The basal ATPase activity of PfGrp170 and PfGrp94 as control
